Values of other authors in patent US20040158054A1, “Di-ribonucleotides as specific viral RNA-polymerase inhibitors for the treatment or prevention of viral infections” (priority 2003, published 2004).

Columns and labels:
[1] = tested on: 6-mercaptopurine-resistant cancer cell lines

## O=P(O)(OC[C@H]1O[C@@H](n2cnc3c(=S)[nH]cnc32)[C@H](O)[C@@H]1O)OC[C@H]1O[C@@H](n2cnc3c(=S)nc[nH]c32)[C@H](O)[C@@H]1O [bis(thioinosine)-5′,5′-phosphate]
[1]
  inhibition of 6-mercaptopurine-resistant cancer cell lines: inhibit
Neoplastic cells; relative to 6-MP
  fold more potent against neoplastic cells than 6-MP: 240 fold
Neoplastic cells; relative to 6-MP riboside
  fold more potent against neoplastic cells than 6-MP riboside: 25 fold
